Results published in PMC9504648 (Marine Drugs, 2022).

Assays:
[1] = target: T1, NMDA receptor (NMDAR; GluN2B-containing) (Mus musculus, UniProt P35438+Q01097); test: Fluo-3 NMDA-induced Ca2+ influx in primary neurons, single concentration ([…], […] reduction in AUC); assay type: cell-based
T1 construct: gene Grin2b; native receptor in DIV 10–12 cerebrocortical neurons; with GluN1

[2] = target: T1, NMDA receptor (NMDAR; GluN2B-containing); test: Fluo-3 Ca2+ influx in primary neurons; […] inhibits NMDA response ([…] AUC); IC50 is against PbTx-2-induced influx; assay type: cell-based

T1 sequence (Q01097 27-1482, other chains not shown): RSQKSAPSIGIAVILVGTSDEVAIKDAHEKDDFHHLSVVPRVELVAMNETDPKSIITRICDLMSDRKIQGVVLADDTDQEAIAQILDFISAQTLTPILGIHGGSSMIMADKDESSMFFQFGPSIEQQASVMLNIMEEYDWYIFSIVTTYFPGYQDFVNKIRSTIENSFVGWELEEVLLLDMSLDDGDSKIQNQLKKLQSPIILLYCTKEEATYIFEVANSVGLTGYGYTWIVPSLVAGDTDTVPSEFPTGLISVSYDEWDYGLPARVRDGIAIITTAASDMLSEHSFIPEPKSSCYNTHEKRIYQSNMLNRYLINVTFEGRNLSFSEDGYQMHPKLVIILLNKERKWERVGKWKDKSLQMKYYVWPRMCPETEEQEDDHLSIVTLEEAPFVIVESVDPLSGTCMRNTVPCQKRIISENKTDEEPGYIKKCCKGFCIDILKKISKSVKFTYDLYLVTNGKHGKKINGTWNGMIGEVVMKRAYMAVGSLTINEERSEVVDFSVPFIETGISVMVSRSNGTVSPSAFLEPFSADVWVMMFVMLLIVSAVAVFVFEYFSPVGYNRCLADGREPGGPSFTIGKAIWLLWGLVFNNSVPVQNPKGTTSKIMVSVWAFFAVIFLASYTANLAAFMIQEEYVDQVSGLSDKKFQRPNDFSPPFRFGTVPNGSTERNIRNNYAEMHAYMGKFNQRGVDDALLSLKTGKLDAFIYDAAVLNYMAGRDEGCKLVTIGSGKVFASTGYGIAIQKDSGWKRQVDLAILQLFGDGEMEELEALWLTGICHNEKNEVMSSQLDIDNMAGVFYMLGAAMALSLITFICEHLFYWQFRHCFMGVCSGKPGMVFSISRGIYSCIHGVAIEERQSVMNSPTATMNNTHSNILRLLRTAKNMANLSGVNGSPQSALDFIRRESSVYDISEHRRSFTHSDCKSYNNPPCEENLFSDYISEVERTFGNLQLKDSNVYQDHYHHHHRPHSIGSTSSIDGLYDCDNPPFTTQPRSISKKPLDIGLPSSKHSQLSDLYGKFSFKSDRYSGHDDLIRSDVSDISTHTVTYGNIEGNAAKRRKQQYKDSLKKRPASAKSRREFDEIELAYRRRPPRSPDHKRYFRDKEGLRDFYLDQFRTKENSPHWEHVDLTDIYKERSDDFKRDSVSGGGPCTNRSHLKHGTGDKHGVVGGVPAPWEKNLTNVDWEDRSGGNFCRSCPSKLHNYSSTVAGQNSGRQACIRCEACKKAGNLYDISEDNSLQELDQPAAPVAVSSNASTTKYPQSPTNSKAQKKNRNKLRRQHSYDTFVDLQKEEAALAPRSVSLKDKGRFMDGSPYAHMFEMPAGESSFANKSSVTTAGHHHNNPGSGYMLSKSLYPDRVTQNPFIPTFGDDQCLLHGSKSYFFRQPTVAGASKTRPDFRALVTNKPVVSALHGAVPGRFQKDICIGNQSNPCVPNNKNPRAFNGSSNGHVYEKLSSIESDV

Row | Compound | inhibition at 1 µM [1] [%] | IC50 [2] [nM]
1 | C[C@]12N[C@H](Cc3ccccc31)c1ccccc12 [MK-801] | 75 | –
2 | CC(C(O)c1ccc(O)cc1)N1CCC(Cc2ccccc2)CC1 (centres unmarked) [ifenprodil] | – | 2200
